For experiment [1], the target named is T1, Cbl-b (Homo sapiens, UniProt Q13191). The experiment can be described thus: Cbl-b activity assay (Cbl-b inhibition assay), TR-FRET of Cbl-b interaction with UbcH5B-Ub. The experiment is classed as biochemical. The note with it: assay buffer with 100 mM NaCl, 60 nM Src kinase; read-out: Cbl-b activity IC50. Put shortly:
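Compound-treated Cbl-b was incubated 1.5 h with Src kinase (60 nM final; 30 nM for asterisked values, which also used 50 mM instead of 100 mM NaCl), 1 mM ATP and 5 mM MgCl2. Binding to fluorescent Ub-loaded UbcH5B (C85K mutant) was then read by TR-FRET after 1 h more.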
For orientation: Time-resolved FRET reads energy transfer from a long-lived donor to a nearby acceptor.

Experiment [2] concerns T-cell. The experiment can be described thus: CD25 cell surface staining on T-cells stimulated with anti-CD3 antibody alone (Biological Example 2). In kind it is cell-based. The settings on record: primary human total T-cells, baseline = anti-CD3/anti-CD28 stimulated cells without inhibitor, read-out: CD25 staining, Anti-CD3 stimulation, fold change over baseline; for fold induction at 1 µM: 1 μM compound; for fold induction at 8 µM: 8 μM compound.

The test system of experiment [3] is T-cell. As to the kind of experiment: CD25 cell surface staining on T-cells co-stimulated with anti-CD3 and anti-CD28 antibody (Biological Example 2). The experiment is classed as cell-based, human. The note with it: Homo sapiens, T-cell, primary human total T-cells, baseline = anti-CD3/anti-CD28 stimulated cells without inhibitor, read-out: CD25 staining, Anti-CD3/Anti-CD28 stimulation, fold change over baseline; for fold induction at 0.3 µM: 0.3 μM compound; for fold induction at 1 µM: 1 μM compound; for fold induction at 4 µM: 4 μM compound. The essentials:
(§1)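 Values are fold-change over baseline: readings (IL-2 release, CD25 staining) from inhibitor-treated T-cells divided against untreated cells […]. No detailed procedure stated.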

Experiment [4] has as its system T-cell. The experiment can be described thus: IL-2 secretion from T-cells stimulated with anti-CD3 antibody alone (Biological Example 2). In kind it is cell-based. The note with it: primary human total T-cells, read-out: IL-2 secretion, Anti-CD3 stimulation, fold change over baseline; for fold induction at 1 µM: 1 μM compound; for fold induction at 8 µM: 8 μM compound.

The target in experiment [5] is T1, Cbl-b. The experiment can be described thus: Cbl-b inhibition assay (Cbl-b activity assay, FRET, Biological Example 1; 100 mM NaCl, 60 nM Src kinase). In kind it is biochemical. The settings on record: upper bound stated in text lists; read-out: IC50 values in the Cbl-b inhibition assay of Biological Example 1. Put shortly: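 FRET read-out: loss of signal marks inhibition. Mix = biotin-Avi-Cbl-b (N-term), Src kinase, UbcH5B-Ub(Bodipy-FL, irreversible conjugate), streptavidin-Tb, assay buffer.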

Experiment [6] concerns T-cell. As to the kind of experiment: IL-2 secretion from T-cells co-stimulated with anti-CD3 and anti-CD28 antibody (Biological Example 2). In kind it is cell-based, human. The settings on record: Homo sapiens, T-cell, primary human total T-cells, baseline = anti-CD3/anti-CD28 stimulated cells without inhibitor, read-out: IL-2 secretion, Anti-CD3/Anti-CD28 stimulation, fold change over baseline; for fold induction at 0.3 µM: 0.3 μM compound; for fold induction at 1 µM: 1 μM compound; for fold induction at 4 µM: 4 μM compound. The essentials:
as §1

Bounds are passed on as bounds.

In patent US20220324835A1 (Nurix Therapeutics, Inc., priority 2018, published 2022) one finds IC50 and fold induction data, which are given here for eight compounds.

T1 sequence (Q13191 36-427): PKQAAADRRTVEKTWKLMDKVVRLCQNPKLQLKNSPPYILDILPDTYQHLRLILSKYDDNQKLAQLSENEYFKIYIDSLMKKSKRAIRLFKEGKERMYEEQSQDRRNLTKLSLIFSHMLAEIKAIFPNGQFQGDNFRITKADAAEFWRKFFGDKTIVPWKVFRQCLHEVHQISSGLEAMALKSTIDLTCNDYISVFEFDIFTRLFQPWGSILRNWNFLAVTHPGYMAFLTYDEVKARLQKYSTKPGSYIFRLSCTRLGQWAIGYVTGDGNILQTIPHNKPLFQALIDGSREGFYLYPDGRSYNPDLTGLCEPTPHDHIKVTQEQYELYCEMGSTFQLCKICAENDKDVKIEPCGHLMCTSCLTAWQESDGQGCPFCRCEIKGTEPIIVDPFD

On to `Cn1cnnc1C(F)(F)[C@](C)(F)c1cccc(N2Cc3c(cc(CN4CC(C#N)C4)cc3C(F)(F)F)C2=O)c1` [Compound 456, (R)-1-((3-oxo-2-(3-(1,1,2-trifluoro-1-(4-methyl-4H-1,2,4-triazol-3-yl)propan-2-yl)phenyl)-7-(trifluoromethyl)isoindolin-5-yl)methyl)azetidine-3-carbonitrile], for which the figures for the IC50 at Cbl-b [1] and on Cbl-b [5] were 100 to 300 nM and at most 300 nM, respectively. Further, the fold induction at 1 µM lay in the range of 0.801 to 1 with T-cell [2], 1.01 to 1.3 in the experiment with T-cell [3], 0.051 to 0.1 in the experiment with T-cell [4] and 2.51 to 5 in the experiment on T-cell [6]. Also, the results for the fold induction at 8 µM in the experiment with T-cell [2] and in the experiment on T-cell [4] were over 1 and 0.101 to 0.15, respectively. Moreover, the values for the fold induction at 0.3 µM in the experiment on T-cell [3] and in the experiment with T-cell [6] were 1.01 to 1.3 and 1.01 to 2.5, respectively. The figures for the fold induction at 4 µM in the experiment with T-cell [3] and in the experiment on T-cell [6] were 1.01 to 1.3 and 5 to 7.5, respectively.

As to `C[C@H](c1cc2c(c(C(F)(F)F)c1)CN(c1cccc([C@@](C)(F)C(F)(F)c3nncn3C)c1)C2=O)N1CC[C@H](F)C1` [Compound 459, 6-((R)-1-((S)-3-fluoropyrrolidin-1-yl)ethyl)-2-(3-((R)-1,1,2-trifluoro-1-(4-methyl-4H-1,2,4-triazol-3-yl)propan-2-yl)phenyl)-4-(trifluoromethyl)isoindolin-1-one], the IC50 at Cbl-b [1] was under 100 nM; on Cbl-b [5], at most 100 nM. For the same compound, the fold induction at 1 µM is over 1 with T-cell [2], 1.31 to 1.5 in the experiment on T-cell [3], over 0.201 in the experiment on T-cell [4] and over 7.5 in the experiment on T-cell [6]. Also, the fold induction at 8 µM in the experiment with T-cell [2] was over 1; with T-cell [4] it was over 0.201. In addition, the fold induction at 0.3 µM fell in the range of 1.01 to 1.3 in the experiment on T-cell [3] and 2.51 to 5 with T-cell [6]. Moreover, the fold induction at 4 µM in the experiment with T-cell [3] was 1.51 to 1.75; in the experiment with T-cell [6] it was over 7.5.

As for `C[C@@H](c1cc2c(c(C(F)(F)F)c1)CN(c1cccc([C@@](C)(F)C(F)(F)c3nncn3C)c1)C2=O)N1CC[C@H](F)C1` [Compound 460, 6-((S)-1-((S)-3-fluoropyrrolidin-1-yl)ethyl)-2-(3-((R)-1,1,2-trifluoro-1-(4-methyl-4H-1,2,4-triazol-3-yl)propan-2-yl)phenyl)-4-(trifluoromethyl)isoindolin-1-one], the half-inhibitory concentration (IC50) on Cbl-b [1] was under 100 nM; at Cbl-b [5], at most 100 nM. Also, the fold induction at 1 µM is over 1 in the experiment with T-cell [2], 1.51 to 1.75 with T-cell [3], over 0.201 in the experiment with T-cell [4] and over 7.5 with T-cell [6]. Besides, the fold induction at 8 µM was over 1 in the experiment with T-cell [2] and over 0.201 in the experiment on T-cell [4]. Further, the fold induction at 0.3 µM is 1.31 to 1.5 in the experiment on T-cell [3] and over 7.5 in the experiment on T-cell [6]. Moreover, the values for the fold induction at 4 µM in the experiment on T-cell [3] and with T-cell [6] were 1.51 to 1.75 and over 7.5, respectively.

For `Cn1cnnc1C(F)(F)[C@](C)(F)c1cccc(N2Cc3c(cc(CN4C[C@@H](F)[C@@H](F)C4)cc3C(F)(F)F)C2=O)c1` [Compound 461, 6-(((3R,7S)-3,4-difluoropyrrolidin-1-yl)methyl)-2-(3-((R)-1,1,2-trifluoro-1-(4-methyl-4H-1,2,4-triazol-3-yl)propan-2-yl)phenyl)-4-(trifluoromethyl)isoindolin-1-one], the IC50 is under 100 nM at Cbl-b [1] and at most 100 nM at Cbl-b [5]. For the same compound, the fold induction at 1 µM in the experiment on T-cell [2] was over 1; with T-cell [3], 1.31 to 1.5; with T-cell [4] it was 0.151 to 0.2; with T-cell [6], 5 to 7.5. Further, the fold induction at 8 µM with T-cell [2] was over 1; in the experiment with T-cell [4] it was over 0.201. Moreover, the fold induction at 0.3 µM was in the range of 1.31 to 1.5 in the experiment with T-cell [3] and 2.51 to 5 in the experiment on T-cell [6]. For the same compound, the fold induction at 4 µM is 1.51 to 1.75 in the experiment on T-cell [3] and over 7.5 with T-cell [6].

Turning to `Cn1cnnc1C(F)(F)C1(c2cccc(N3Cc4c(cc(CN5CC[C@H](F)C5)cc4C(F)(F)F)C3=O)c2)CC1` [Compound 462, (S)-2-(3-(1-(difluoro(4-methyl-4H-1,2,4-triazol-3-yl)methyl)cyclopropyl)phenyl)-6-((3-fluoropyrrolidin-1-yl)methyl)-4-(trifluoromethyl)isoindolin-1-one], the IC50 on Cbl-b [1] is under 100 nM; at Cbl-b [5], at most 100 nM. In addition, the fold induction at 1 µM with T-cell [2] is over 1; with T-cell [3], 1.31 to 1.5; in the experiment with T-cell [4], over 0.201; in the experiment on T-cell [6] it was over 7.5. The fold induction at 0.3 µM fell in the range of 1.01 to 1.3 with T-cell [3] and 5 to 7.5 with T-cell [6].

As to `CC(c1cc2c(c(C(F)(F)F)c1)CN(c1cccc([C@H]3C[C@H]3c3nncn3C)c1)C2=O)N1CC[C@H](F)C1` (stereo partly drawn) [Compound 466, 6-(1-((S)-3-fluoropyrrolidin-1-yl)ethyl)-2-(3-((1S,2R)-2-(4-methyl-4H-1,2,4-triazol-3-yl)cyclopropyl)phenyl)-4-(trifluoromethyl)isoindolin-1-one], the IC50 at Cbl-b [1] is under 100 nM; on Cbl-b [5], at most 100 nM. The fold induction at 1 µM was over 1 in the experiment with T-cell [2], 1.51 to 1.75 with T-cell [3], over 0.201 with T-cell [4] and over 7.5 in the experiment on T-cell [6]. Besides, the fold induction at 8 µM in the experiment on T-cell [2] was over 1; in the experiment with T-cell [4], over 0.201. For the same compound, the fold induction at 0.3 µM with T-cell [3] lay within 1.31 to 1.5; in the experiment with T-cell [6], 2.51 to 5. Besides, the figures for the fold induction at 4 µM in the experiment on T-cell [3] and in the experiment on T-cell [6] were 1.51 to 1.75 and over 7.5, respectively.

As for `CCOc1cc(N2Cc3c(cc(CN4CC[C@H](F)C4)cc3C(F)(F)F)C2=O)cc(C2(Cc3nncn3C)COC2)c1` [Compound 468, 2-(3-ethoxy-5-{3-[(4-methyl-4H-1,2,4-triazol-3-yl)methyl]oxetan-3-yl}phenyl)-6-{[(3×)-3-fluoropyrrolidin-1-yl]methyl}-4-(trifluoromethyl)-2,3-dihydro-1H-isoindol-1-one], the half-maximal inhibitory concentration (IC50) on Cbl-b [1] is under 100 nM; at Cbl-b [5], at most 100 nM. The fold induction at 1 µM is over 1 with T-cell [2], 1.31 to 1.5 with T-cell [3], over 0.201 in the experiment with T-cell [4] and over 7.5 in the experiment with T-cell [6]. Moreover, the fold induction at 0.3 µM in the experiment on T-cell [3] fell in the range of 1.31 to 1.5; with T-cell [6], 5 to 7.5.

As for `CCOc1cc([C@@](C)(F)C(F)(F)c2nncn2C)cc(NC(=O)c2cc(C)nc(C3CC3)n2)n1` [Compound 469, 2-cyclopropyl-N-{6-ethoxy-4-[(2R)-1,1,2-trifluoro-1-(4-methyl-4H-1,2,4-triazol-3-yl)propan-2-yl]pyridin-2-yl}-6-methylpyrimidine-4-carboxamide], the IC50 is 100 to 300 nM on Cbl-b [1] and at most 300 nM on Cbl-b [5]. The fold induction at 1 µM was 0.801 to 1 in the experiment with T-cell [2], 1.01 to 1.3 in the experiment with T-cell [3], 0.101 to 0.15 with T-cell [4] and 1.01 to 2.5 in the experiment with T-cell [6]. The fold induction at 0.3 µM in the experiment on T-cell [3] lay within 1.01 to 1.3; in the experiment on T-cell [6], 1.01 to 2.5.

Usually IC50 stands for the point on the concentration scale where inhibition reaches its midpoint.
